Assay results from US7112715B2, “Transgenic mouse for targeted recombination mediated by modified Cre-ER” (Gie-Cerbm, Centre Europeen de Recherche en Biologie et en …, priority 2000, dated 2006).

What was measured:
Cre-ER^T2 = Cre-ER^T2 (Homo sapiens, UniProt P03372, G400V/L544A/M543A); conditions: K5-Cre-ER^T2 mice; OHT dose 0.001 mg; day 2
Protocol: (§1) Immunohistochemistry of the chimeric Cre recombinase on sections of the epidermis of K5-Cre-ER^T2 and K5-Cre-ER^T3 mice treated either with 0.1 mg, 0.01 mg or 0.001 mg of OHT and analyzed two days (D 2) after the start of the treatment (D 0). The red color corresponds to labeling with the anti-Cre antibody directed against the Cre protein, and the Cyan color corresponds to DAPI.
(§2) After fixing in 2% paraformaldehyde, frozen sections of 10 μm are blocked in 5% normal goat serum (Vector Laboratories) incubated with the rabbit polyclonal antibody anti-MK6 (Babco). After washing in PBS/0.1% Tween 20, the sections are incubated with the donkey anti-rabbit IgG antibody conjugated with CY3 (Jackson Immuno Research) and then mounted in the Vectashield medium (Vector Laboratories) containing DAPI (4′,6-diamidino-2-phenylindole dihydrochloride; Boehringer Mannheim) (Brocard et al., 1997). The anti-Cre antibodies are used according to Indra et al. (1999). • 1.6—Immunohistochemistry
(§3) The sensitivity to OHT was tested in a first instance by analyzing the intracellular location of the chimeric proteins.

Cre-ER^T3 [1] = target: T1, Cre-ER^T3 (Homo sapiens, UniProt P03372, L544A/M543A); conditions: K5-Cre-ER^T3 mice; OHT dose 0.001 mg; day 2
Protocol: as §1, §2, §3

Cre-ER^T3 [2] = target: T1, Cre-ER^T3; conditions: 1 and 0.1 mg of OHT; day 15
Protocol: Activity of β-galactosidase on sections of the epidermis of the tail of K5-Cre-ER^T2(tg/0)/Rosa^f1/1 and K5-Cre-ER^T3(tg/0)/Rosa^f1/+ mice treated with 1 mg, 0.1 mg, 0.01 mg and 0.001 mg of QHT. The analyses are carried out on the fifteenth day after the start of the treatment (D0).
as §3

mouse ER LBD (mER) G525R = mouse ER LBD (mER) G525R (Mus musculus, UniProt P19785, G525R); conditions: cited from earlier work
[3] = test system: fusion protein between the recombinase Cre and the ligand-binding domain of the mutated human nuclear estrogen receptor; conditions: varies between a few percents and 80%; five infections of 8 mg; cited from earlier work
melanocytic growths = assay: Melanocytic growths and lymph node melanocytes after DMBA or DMBA/TPA treatment of CT and RXRα^ep−/− mice; assay type: in vivo, mouse; conditions: for mice with enlarged and pigmented subiliac lymph nodes: 30 weeks
Protocol: A. Dorsal view of CT (K14-Cre-ER^T2(0/0)/RXRα^L2/L2) (left) and RXRα^ep−/− (right) mice 25 weeks after DMBA treatment. Arrows point to some or the melanocytic growths. B. Number of melanocytic growths in skin of CT and RXRα^ep−/− mice 30 weeks after DMBA and DMBA/TPA treatments, as indicated. Values are expressed as mean +/−SEM (n=6). *, p<0.05; ***, p<0.001, C. Size distribution of melanocytic growths in CT and RXRα^ep−/− mice. The number of 1–2 and 2–4 mm melanocytic growths was determined on CT and RXRα^ep−/− mice, 30 weeks after DMBA and DMBA/TPA treatments, as indicated. Values are expressed as mean +/−SEM (m=6).
Photograph of subiliac lymph nodes from CT (a and e) and RXRα^ep−/− (b and f) mice taken 30 weeks after DMBA and DMBA/TPA treatment, respectively. Hematoxylin and eosin stained 5 μm paraffin sections of CT (c and g) and RXRα^ep−/− (d and h) mice after DMBA and DMBA/TPA treatments, respectively. Scale bar, 33 μm.
Subiliac lymph nodes were isolated 30 weeks after DMBA application, fixed in 4% paraformaldehyde, photographed and embedded in paraffin. 5 μm-thick sections were stained with hematoxylin and eosin. • 1.8—Assay of blood parameters
(§4) A single dose of 7,12-dimethylbenz(a)anthracene (DMBA) (5 μg in 100 μl acetone) was applied on the dorsal skin of 10–14 week old mice, 7 weeks before or 16 days after the first Tam or oil (vehicle) treatments. 12-0-tetradecanoylphorbol-13-acetate (TPA) (5 μg in 200 μl acetone) was applied twice a week for 25 to 30 weeks, starting one week after DMBA application. CT and RXRα^ep−/− mice were shaved 7 and 2 days before DMBA treatment, and every second week for 30 and 15 weeks, respectively. 8 weeks after DMBA treatment, all-trans retinoic acid (t-RA, 20 nmoles in ethanol) or vehicle was topically applied 15 min before each TPA application. • 1.10—Determination of the number and size of the tumors
(§5) The length of the papillomas and the diameter of the melanocytic were measured with a Vernier calliper on isofluorane anesthesised mice.

[4] = test system: skin papilloma formation induced by DMBA/TPA; assay: Antitumoral effect of topical retinoic acid on DMBA/TPA-induced skin papilloma; assay type: in vivo, mouse; conditions: for average number of tumors: ~25 weeks of DMBA/TPA treatment
Protocol: as §4, §5

T1 sequence (P03372 with tags, fused parts or gaps M543A/L544A): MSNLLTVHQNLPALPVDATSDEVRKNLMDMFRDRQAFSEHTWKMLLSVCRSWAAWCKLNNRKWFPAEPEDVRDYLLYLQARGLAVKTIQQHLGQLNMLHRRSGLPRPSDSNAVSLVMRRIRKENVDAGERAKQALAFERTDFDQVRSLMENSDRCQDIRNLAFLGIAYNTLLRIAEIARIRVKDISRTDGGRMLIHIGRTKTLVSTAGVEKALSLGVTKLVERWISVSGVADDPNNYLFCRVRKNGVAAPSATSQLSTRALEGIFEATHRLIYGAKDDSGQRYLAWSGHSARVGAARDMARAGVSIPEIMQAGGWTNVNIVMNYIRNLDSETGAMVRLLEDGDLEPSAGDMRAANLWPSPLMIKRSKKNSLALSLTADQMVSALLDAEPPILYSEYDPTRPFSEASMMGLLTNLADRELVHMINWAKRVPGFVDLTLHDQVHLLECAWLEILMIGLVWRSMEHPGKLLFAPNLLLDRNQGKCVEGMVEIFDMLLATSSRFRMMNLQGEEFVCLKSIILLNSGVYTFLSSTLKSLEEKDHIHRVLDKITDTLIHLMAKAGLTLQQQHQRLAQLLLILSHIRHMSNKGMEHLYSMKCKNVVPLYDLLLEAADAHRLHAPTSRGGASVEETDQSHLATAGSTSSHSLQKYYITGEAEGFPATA
Sequence of Cre-ER^T2 (P03372 with tags, fused parts or gaps G400V/M543A/L544A): as the sequence (P03372 with tags, fused parts or gaps M543A/L544A) above, with G465V counted along it
Sequence of mouse ER LBD (mER) G525R (P19785 whole entry G525R, the tested form may be a part): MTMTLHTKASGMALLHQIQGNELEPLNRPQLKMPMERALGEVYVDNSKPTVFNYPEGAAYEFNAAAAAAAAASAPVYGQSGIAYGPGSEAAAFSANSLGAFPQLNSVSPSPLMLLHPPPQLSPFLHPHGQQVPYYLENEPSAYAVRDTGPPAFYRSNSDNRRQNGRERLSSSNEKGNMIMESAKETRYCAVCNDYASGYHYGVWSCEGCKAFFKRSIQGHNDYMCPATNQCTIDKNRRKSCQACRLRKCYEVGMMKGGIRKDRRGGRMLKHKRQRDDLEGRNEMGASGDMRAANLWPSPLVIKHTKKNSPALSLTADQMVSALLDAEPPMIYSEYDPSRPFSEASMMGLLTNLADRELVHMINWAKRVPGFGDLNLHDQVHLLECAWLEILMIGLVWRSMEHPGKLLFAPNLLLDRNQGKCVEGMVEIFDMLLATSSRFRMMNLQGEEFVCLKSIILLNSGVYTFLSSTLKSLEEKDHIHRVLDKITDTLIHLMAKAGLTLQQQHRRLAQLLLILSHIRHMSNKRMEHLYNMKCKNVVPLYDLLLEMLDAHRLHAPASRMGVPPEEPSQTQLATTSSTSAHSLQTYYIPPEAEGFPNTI

Compound: 4-hydroxytamoxifen [OHT]
- nuclei labeled with anti-Cre antibodies in the skin (Cre-ER^T2): no positive nucleus
- nuclei strongly labeled with anti-Cre antibodies in the basal layer of the epidermis (Cre-ER^T3 [1]): about ⅓
- excision levels, K5-Cre-ER^T3 versus K5-Cre-ER^T2 line (Cre-ER^T3 [2]): similar
- effect of the G525R mutation on binding (mouse ER LBD (mER) G525R): without adversely affecting the binding
- efficiency of site-specific recombination in cells expressing the fusion protein [3]: ≤ 80%

Compound: Cc1c2ccccc2c(C)c2c1ccc1ccccc12 [DMBA, 7,12-dimethylbenz(a)anthracene]
- induction of melanocytic growths, RXRα^ep−/− versus CT mice (melanocytic growths; DMBA alone): ~7 fold
- mice with enlarged and pigmented subiliac lymph nodes (melanocytic growths; DMBA, CT mice): 0/4
- mice with enlarged and pigmented subiliac lymph nodes (melanocytic growths; DMBA, RXRα^ep−/− mice): two out of 4
- melanosomes per melanocyte, RXRα^ep−/− versus CT melanocytes (melanocytic growths; DMBA, electron microscopy): ~10 fold

Compound: CC1=C(/C=C/C(C)=C/C=C/C(C)=C/C(=O)O)C(C)(C)CCC1 [t-RA, all-trans retinoic acid]
- tumor formation ([4]; CT mice): efficiently inhibited
- size of the papilloma after treatment ([4]; CT mice, 25 weeks of RA treatment, from 2–3 mm, in 3 out of 8 papillomas of 6 mice): 1 mm
- size of the tumors ([4]; RA treated CT mice): below 2 mm
- average number of tumors ([4]; RA treated CT mice): 1
- tumors larger than 12 mm ([4]; RA treated RXRα^ep−/− mice): ~11%
- average number of tumors ([4]; RA treated RXRα^ep−/− mice): ~17
- change in size of the papilloma ([4]; RXRα^ep−/− mice): no decrease in size
- number and size of melanocytic growths, RXRα^ep−/− compared to CT mice ([4]; after RA treatment): increased
- skin papilloma formation induced by DMBA/TPA ([4]; topical, female and male wild-type 129Sv): efficiently blocked
